Earlier results, collected in patent publication US9693945B1, “Method of solubilizing a composition of a cleaned photochromic dye suitable for use on human skin” (priority 2016, dated 2017).

System: Salmonella typhimurium
Conditions: background on compounds formerly used in commercial products

| SMILES | Ames test outcome (identified as potential carcinogen) |
| --- | --- |
| NC(=O)/C(=C\c1ccc([N+](=O)[O-])o1)c1ccco1 [furylfuramide] | positive |
| O=P(OCC(Br)CBr)(OCC(Br)CBr)OCC(Br)CBr (centres unmarked) [tris (2,3-dibromopropyl) phosphate] | positive |
